Laboratory results taken from PubChem BioAssay (NCI).
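Compound exposure: 48 hours, 5 concentrations, 96-well plates. GI50 = concentration required for 50% inhibition of growth. TGI: concentration producing complete growth inhibition.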

What was measured:
Assay in all cases: NCI anticancer screen, dose series, 48 h
CCRF-CEM leukemia = test system: CCRF-CEM leukemia
OVCAR-8 ovarian = test system: OVCAR-8 ovarian
SW-620 colon = test system: SW-620 colon
SNB-19 CNS = test system: SNB-19 CNS
MALME-3M melanoma = test system: MALME-3M melanoma
MDA-MB-435 = test system: MDA-MB-435
U251 CNS = test system: U251 CNS
RXF 393 renal = test system: RXF 393 renal
PC-3 prostate = test system: PC-3 prostate
NCI-H460 lung = test system: NCI-H460 lung
HOP-92 NSCLC = test system: HOP-92 NSCLC
HOP-62 NSCLC = test system: HOP-62 NSCLC
UACC-257 melanoma = test system: UACC-257 melanoma
DU-145 prostate = test system: DU-145 prostate
IGROV1 ovarian = test system: IGROV1 ovarian
UACC-62 melanoma = test system: UACC-62 melanoma
RPMI-8226 leukemia = test system: RPMI-8226 leukemia
OVCAR-4 ovarian = test system: OVCAR-4 ovarian
COLO 205 colon = test system: COLO 205 colon
NCI-H226 lung = test system: NCI-H226 lung
A498 renal = test system: A498 renal
EKVX NSCLC = test system: EKVX NSCLC
SF-295 CNS = test system: SF-295 CNS
M14 melanoma = test system: M14 melanoma
SR leukemia = test system: SR leukemia
KM12 colon = test system: KM12 colon
SF-268 CNS = test system: SF-268 CNS
SN12C renal = test system: SN12C renal
HCT-116 colon = test system: HCT-116 colon
LOX IMVI melanoma = test system: LOX IMVI melanoma
HS 578T breast = test system: HS 578T breast
UO-31 renal = test system: UO-31 renal
NCI/ADR-RES ovarian = test system: NCI/ADR-RES ovarian
SNB-75 CNS = test system: SNB-75 CNS
SK-OV-3 ovarian = test system: SK-OV-3 ovarian
MOLT-4 leukemia = test system: MOLT-4 leukemia
A549 NSCLC = test system: A549 NSCLC
MCF7 breast = test system: MCF7 breast
TK-10 renal = test system: TK-10 renal
K-562 leukemia = test system: K-562 leukemia
HCT-15 colon = test system: HCT-15 colon
SK-MEL-28 melanoma = test system: SK-MEL-28 melanoma
SK-MEL-5 melanoma = test system: SK-MEL-5 melanoma
OVCAR-5 ovarian = test system: OVCAR-5 ovarian
OVCAR-3 ovarian = test system: OVCAR-3 ovarian
HT29 colon = test system: HT29 colon
786-0 renal = test system: 786-0 renal
HCC-2998 colon = test system: HCC-2998 colon
HL-60(TB) leukemia = test system: HL-60(TB) leukemia
NCI-H522 lung = test system: NCI-H522 lung
SF-539 CNS = test system: SF-539 CNS
CAKI-1 renal = test system: CAKI-1 renal
ACHN renal = test system: ACHN renal
MDA-MB-231 breast = test system: MDA-MB-231 breast
SK-MEL-2 melanoma = test system: SK-MEL-2 melanoma
BT-549 breast = test system: BT-549 breast
T-47D breast = test system: T-47D breast

`Cc1cc2c(C(N)=O)cccc2n1-c1nc2c(c(NCc3ccccc3)n1)CCCN2` was tested. Which GI50 (CCRF-CEM leukemia) did it give?
The GI50 was 295 nM.

And the TGI (CCRF-CEM leukemia)?
The TGI was 19800 nM.

What about the GI50 (OVCAR-8 ovarian) of the same compound?
Its GI50 is 182 nM.

And the TGI (OVCAR-8 ovarian)?
Its TGI is 431 nM.

And the GI50 (SW-620 colon)?
The GI50 was 219 nM.

What about the TGI (SW-620 colon) of the same compound?
The TGI was 507 nM.

What about the GI50 (SNB-19 CNS) of the same compound?
The GI50 was 296 nM.

And the TGI (SNB-19 CNS)?
The TGI was 765 nM.

What about the GI50 (MALME-3M melanoma) of the same compound?
The GI50 was 178 nM.

What about the TGI (MALME-3M melanoma) of the same compound?
The TGI was 346 nM.

What about the GI50 (MDA-MB-435) of the same compound?
The GI50 was 164 nM.

And the TGI (MDA-MB-435)?
Its TGI is 322 nM.

And the GI50 (U251 CNS)?
Its GI50 is 179 nM.

What about the TGI (U251 CNS) of the same compound?
Its TGI is 331 nM.

What about the GI50 (RXF 393 renal) of the same compound?
The GI50 was 126 nM.

And the TGI (RXF 393 renal)?
The TGI was 273 nM.

What about the GI50 (PC-3 prostate) of the same compound?
Its GI50 is 287 nM.

What about the TGI (PC-3 prostate) of the same compound?
The TGI was 825 nM.

And the GI50 (NCI-H460 lung)?
The GI50 was 232 nM.

What about the TGI (NCI-H460 lung) of the same compound?
Its TGI is 661 nM.

And the GI50 (HOP-92 NSCLC)?
Its GI50 is 261 nM.

What about the TGI (HOP-92 NSCLC) of the same compound?
The TGI was 541 nM.

What about the GI50 (HOP-62 NSCLC) of the same compound?
Its GI50 is 217 nM.

And the TGI (HOP-62 NSCLC)?
Its TGI is 454 nM.

What about the GI50 (UACC-257 melanoma) of the same compound?
Its GI50 is 167 nM.

And the TGI (UACC-257 melanoma)?
The TGI was 347 nM.

What about the GI50 (DU-145 prostate) of the same compound?
The GI50 was 290 nM.

What about the TGI (DU-145 prostate) of the same compound?
The TGI was 783 nM.

What about the GI50 (IGROV1 ovarian) of the same compound?
The GI50 was 194 nM.

And the TGI (IGROV1 ovarian)?
Its TGI is 439 nM.

And the GI50 (UACC-62 melanoma)?
The GI50 was 155 nM.

What about the TGI (UACC-62 melanoma) of the same compound?
The TGI was 330 nM.

What about the GI50 (RPMI-8226 leukemia) of the same compound?
The GI50 was 40.1 nM.

And the TGI (RPMI-8226 leukemia)?
Its TGI is 325 nM.

And the GI50 (OVCAR-4 ovarian)?
The GI50 was 178 nM.

What about the TGI (OVCAR-4 ovarian) of the same compound?
The TGI was 396 nM.

What about the GI50 (COLO 205 colon) of the same compound?
Its GI50 is 195 nM.

And the TGI (COLO 205 colon)?
Its TGI is 364 nM.

And the GI50 (NCI-H226 lung)?
Its GI50 is 158 nM.

And the TGI (NCI-H226 lung)?
Its TGI is 332 nM.

What about the GI50 (A498 renal) of the same compound?
The GI50 was 212 nM.

What about the TGI (A498 renal) of the same compound?
The TGI was 362 nM.

And the GI50 (EKVX NSCLC)?
Its GI50 is 256 nM.

And the TGI (EKVX NSCLC)?
Its TGI is 630 nM.

And the GI50 (SF-295 CNS)?
Its GI50 is 174 nM.

What about the TGI (SF-295 CNS) of the same compound?
The TGI was 352 nM.

What about the GI50 (M14 melanoma) of the same compound?
Its GI50 is 212 nM.

And the TGI (M14 melanoma)?
Its TGI is 432 nM.

And the GI50 (SR leukemia)?
The GI50 was 117 nM.

What about the TGI (SR leukemia) of the same compound?
Its TGI is 525 nM.

And the GI50 (KM12 colon)?
Its GI50 is 195 nM.

What about the TGI (KM12 colon) of the same compound?
The TGI was 400 nM.

And the GI50 (SF-268 CNS)?
Its GI50 is 213 nM.

And the TGI (SF-268 CNS)?
Its TGI is 487 nM.

And the GI50 (SN12C renal)?
Its GI50 is 134 nM.

What about the TGI (SN12C renal) of the same compound?
The TGI was 335 nM.

And the GI50 (HCT-116 colon)?
Its GI50 is 83.1 nM.

What about the TGI (HCT-116 colon) of the same compound?
Its TGI is 631 nM.

What about the GI50 (LOX IMVI melanoma) of the same compound?
The GI50 was 51.7 nM.

What about the TGI (LOX IMVI melanoma) of the same compound?
Its TGI is 206 nM.

What about the GI50 (HS 578T breast) of the same compound?
Its GI50 is 262 nM.

What about the TGI (HS 578T breast) of the same compound?
Its TGI is 745 nM.

And the GI50 (UO-31 renal)?
The GI50 was 215 nM.

And the TGI (UO-31 renal)?
The TGI was 474 nM.

What about the GI50 (NCI/ADR-RES ovarian) of the same compound?
The GI50 was 307 nM.

And the TGI (NCI/ADR-RES ovarian)?
Its TGI is 1740 nM.

What about the GI50 (SNB-75 CNS) of the same compound?
Its GI50 is 153 nM.

What about the TGI (SNB-75 CNS) of the same compound?
Its TGI is 342 nM.

And the GI50 (SK-OV-3 ovarian)?
Its GI50 is 320 nM.

What about the TGI (SK-OV-3 ovarian) of the same compound?
The TGI was 813 nM.

And the GI50 (MOLT-4 leukemia)?
Its GI50 is 241 nM.

And the TGI (MOLT-4 leukemia)?
The TGI was 1160 nM.

What about the GI50 (A549 NSCLC) of the same compound?
Its GI50 is 220 nM.

What about the TGI (A549 NSCLC) of the same compound?
The TGI was 543 nM.

What about the GI50 (MCF7 breast) of the same compound?
The GI50 was 85.3 nM.

And the TGI (MCF7 breast)?
Its TGI is 747 nM.

What about the GI50 (TK-10 renal) of the same compound?
The GI50 was 378 nM.

And the TGI (TK-10 renal)?
The TGI was 809 nM.

And the GI50 (K-562 leukemia)?
The GI50 was 95.5 nM.

And the TGI (K-562 leukemia)?
Its TGI is 2920 nM.

What about the GI50 (HCT-15 colon) of the same compound?
Its GI50 is 162 nM.

What about the TGI (HCT-15 colon) of the same compound?
Its TGI is 467 nM.

And the GI50 (SK-MEL-28 melanoma)?
Its GI50 is 246 nM.

And the TGI (SK-MEL-28 melanoma)?
The TGI was 593 nM.

And the GI50 (SK-MEL-5 melanoma)?
Its GI50 is 59.8 nM.

What about the TGI (SK-MEL-5 melanoma) of the same compound?
The TGI was 181 nM.

What about the GI50 (OVCAR-5 ovarian) of the same compound?
The GI50 was 230 nM.

And the TGI (OVCAR-5 ovarian)?
The TGI was 585 nM.

And the GI50 (OVCAR-3 ovarian)?
Its GI50 is 206 nM.

And the TGI (OVCAR-3 ovarian)?
Its TGI is 410 nM.

And the GI50 (HT29 colon)?
The GI50 was 215 nM.

And the TGI (HT29 colon)?
The TGI was 485 nM.

And the GI50 (786-0 renal)?
Its GI50 is 248 nM.

And the TGI (786-0 renal)?
The TGI was 519 nM.

And the GI50 (HCC-2998 colon)?
Its GI50 is 170 nM.

And the TGI (HCC-2998 colon)?
The TGI was 325 nM.

What about the GI50 (HL-60(TB) leukemia) of the same compound?
Its GI50 is 228 nM.

What about the TGI (HL-60(TB) leukemia) of the same compound?
Its TGI is 1010 nM.

What about the GI50 (NCI-H522 lung) of the same compound?
The GI50 was 164 nM.

What about the TGI (NCI-H522 lung) of the same compound?
The TGI was 359 nM.

What about the GI50 (SF-539 CNS) of the same compound?
The GI50 was 205 nM.

What about the TGI (SF-539 CNS) of the same compound?
Its TGI is 423 nM.

What about the GI50 (CAKI-1 renal) of the same compound?
Its GI50 is 151 nM.

What about the TGI (CAKI-1 renal) of the same compound?
The TGI was 333 nM.

And the GI50 (ACHN renal)?
Its GI50 is 236 nM.

And the TGI (ACHN renal)?
Its TGI is 791 nM.

And the GI50 (MDA-MB-231 breast)?
Its GI50 is 186 nM.

And the TGI (MDA-MB-231 breast)?
The TGI was 394 nM.

And the GI50 (SK-MEL-2 melanoma)?
Its GI50 is 112 nM.

What about the TGI (SK-MEL-2 melanoma) of the same compound?
The TGI was 265 nM.

And the GI50 (BT-549 breast)?
The GI50 was 295 nM.

And the TGI (BT-549 breast)?
Its TGI is 695 nM.

What about the GI50 (T-47D breast) of the same compound?
Its GI50 is 185 nM.

What about the TGI (T-47D breast) of the same compound?
Its TGI is 431 nM.
